The compounds below were run against human MGL from HeLa cells (Homo sapiens (Human), UniProt Q99685) (assay: MGL in vitro activity assay ([glycerol-1,3-3H]-oleoyl glycerol hydrolysis, activated carbon filtration)). Settings: 300 nM [Glycerol-1,3-3H]-oleoyl glycerol, one hour.
Type: biochemical
Outline: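 Endogenous human MGL in HeLa cells/homogenates incubated 1 h with test compounds and 300 nM [glycerol-1,3-3H]-oleoyl glycerol. Released 3H-glycerol passing an activated carbon filter counted as activity; screening at 10 μM compound, top IC50 concentration set empirically.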

Chain of human MGL from HeLa cells (Q99685 whole entry): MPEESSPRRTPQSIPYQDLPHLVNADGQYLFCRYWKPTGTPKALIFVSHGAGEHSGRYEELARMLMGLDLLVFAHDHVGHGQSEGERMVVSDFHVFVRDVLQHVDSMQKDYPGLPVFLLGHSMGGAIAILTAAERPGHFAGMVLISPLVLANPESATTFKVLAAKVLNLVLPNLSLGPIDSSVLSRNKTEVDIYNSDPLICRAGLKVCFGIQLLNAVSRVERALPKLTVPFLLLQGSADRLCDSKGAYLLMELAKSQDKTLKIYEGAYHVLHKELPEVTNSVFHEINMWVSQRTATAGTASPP

| IC50 [nM] | Compound |
| --- | --- |
| 33 | COc1cc(C2CCC3(CC2)CN(C(=O)[C@H]2C[C@@](C)(O)C2)C3)ccc1C1CC1 [Example 140, (7-(4-Cyclopropyl-3-methoxyphenyl)-2-azaspiro[3.5]nonan-2-yl)((1s,3s)-3-hydroxy-3-methylcyclobutyl)methanone] |
| 20 | COc1cc(C2CC2)cc(C2CCC3(CC2)CN(C(=O)[C@H]2C[C@@](C)(O)C2)C3)c1 [Example 141, (7-(3-Cyclopropyl-5-methoxyphenyl)-2-azaspiro[3.5]nonan-2-yl)((1s,3s)-3-hydroxy-3-methylcyclobutyl)methanone] |
| 121 | COc1ccc(C2CCC3(CC2)CN(C(=O)[C@H]2C[C@@](C)(O)C2)C3)cc1C1CC1 [Example 142, (7-(3-Cyclopropyl-4-methoxyphenyl)-2-azaspiro[3.5]nonan-2-yl)((1s,3s)-3-hydroxy-3-methylcyclobutyl)methanone] |
| 4.5 | Cc1cc(C2CC2)cc(C2CCC3(CC2)CN(C(=O)[C@H]2C[C@@](C)(O)C2)C3)c1 [Example 143, (7-(3-Cyclopropyl-5-methylphenyl)-2-azaspiro[3.5]nonan-2-yl)((1s,3s)-3-hydroxy-3-methylcyclobutyl)methanone] |
| 16 | CCc1cccc(C2CCC3(CC2)CN(C(=O)[C@H]2C[C@@](C)(O)C2)C3)c1OC [Example 144, (7-(3-Ethyl-2-methoxyphenyl)-2-azaspiro[3.5]nonan-2-yl)((1s,3s)-3-hydroxy-3-methylcyclobutyl)methanone] |
| 31 | CCc1cc(OC)cc(C2CCC3(CC2)CN(C(=O)[C@H]2C[C@@](C)(O)C2)C3)c1 [Example 145, (7-(3-Ethyl-5-methoxyphenyl)-2-azaspiro[3.5]nonan-2-yl)((1s,3s)-3-hydroxy-3-methylcyclobutyl)methanone] |
| 4.6 | CCc1cc(C2CCC3(CC2)CN(C(=O)[C@H]2C[C@@](C)(O)C2)C3)cc(C(F)(F)F)c1 [Example 146, (7-(3-Ethyl-5-(trifluoromethyl)phenyl)-2-azaspiro[3.5]nonan-2-yl)((1s,3s)-3-hydroxy-3-methylcyclobutyl)methanone] |
| 6.4 | Cc1cc(C)cc(C2CCC3(CC2)CN(C(=O)[C@H]2C[C@@](C)(O)C2)C3)c1 [Example 147, (7-(3,5-Dimethylphenyl)-2-azaspiro[3.5]nonan-2-yl)((1s,3s)-3-hydroxy-3-methylcyclobutyl)methanone] |
| 9.4 | CCc1cc(OC(F)(F)F)cc(C2CCC3(CC2)CN(C(=O)[C@H]2C[C@@](C)(O)C2)C3)c1 [Example 148, (7-(3-Ethyl-5-(trifluoromethoxy)phenyl)-2-azaspiro[3.5]nonan-2-yl)((1s,3s)-3-hydroxy-3-methylcyclobutyl)methanone] |
| 1.7 | C[C@]1(O)C[C@@H](C(=O)N2CC3(CCC(c4cc(Cl)cc(OC(F)(F)F)c4)CC3)C2)C1 [Example 149, (7-(3-Chloro-5-(trifluoromethoxy)phenyl)-2-azaspiro[3.5]nonan-2-yl)((1s,3s)-3-hydroxy-3-methylcyclobutyl)methanone] |
| 17 | CCOc1ccc(C2CCC3(CC2)CN(C(=O)[C@H]2C[C@@](C)(O)C2)C3)cc1C(F)(F)F [Example 150, (7-(4-Ethoxy-3-(trifluoromethyl)phenyl)-2-azaspiro[3.5]nonan-2-yl)((1s,3s)-3-hydroxy-3-methylcyclobutyl)methanone] |
| 4.6 | CC(C)c1cccc(C2(O)CCC3(CC2)CN(C(=O)[C@H]2C[C@@](C)(O)C2)C3)c1 [Example 151, ((1s,3s)-3-Hydroxy-3-methylcyclobutyl)(7-hydroxy-7-(3-isopropylphenyl)-2-azaspiro[3.5]nonan-2-yl)methanone] |
| 22 | CC(C)(C)c1cccc(C2CC3(CCN(C(=O)[C@H]4C[C@@](C)(O)C4)CC3)C2)c1 [Example 153, (2-(3-(tert-Butyl)phenyl)-7-azaspiro[3.5]nonan-7-yl)((1s,3s)-3-hydroxy-3-methylcyclobutyl)methanone] |
| 1.7 | Cc1c(CC2CC3(C2)CN(C(=O)[C@H]2C[C@@](C)(O)C2)C3)cccc1C1CC1 [Example 154, (6-(3-Cyclopropyl-2-methylbenzyl)-2-azaspiro[3.3]heptan-2-yl)((1s,3s)-3-hydroxy-3-methylcyclobutyl)methanone] |
| 3 | Cc1c(CC2CC3(C2)CN(C(=O)[C@H]2C[C@@](C)(O)C2)C3)cccc1C(F)(F)F [Example 155, ((1s,3s)-3-Hydroxy-3-methylcyclobutyl)(6-(2-methyl-3-(trifluoromethyl)benzyl)-2-azaspiro[3.3]heptan-2-yl)methanone] |
| 11 | Cc1cccc(CC2CC3(C2)CN(C(=O)[C@H]2C[C@@](C)(O)C2)C3)c1C [Example 156, (6-(2,3-Dimethylbenzyl)-2-azaspiro[3.3]heptan-2-yl)((1s,3s)-3-hydroxy-3-methylcyclobutyl)methanone] |
| 29 | C[C@]1(O)C[C@@H](C(=O)N2CC3(CC(Cc4cccc(OC(F)F)c4)C3)C2)C1 [Example 157, (6-(3-(Difluoromethoxy)benzyl)-2-azaspiro[3.3]heptan-2-yl)((1s,3s)-3-hydroxy-3-methylcyclobutyl)methanone] |
| 9.2 | CCc1ccccc1CC1CC2(C1)CN(C(=O)[C@H]1C[C@@](C)(O)C1)C2 [Example 158, (6-(2-Ethylbenzyl)-2-azaspiro[3.3]heptan-2-yl)((1s,3s)-3-hydroxy-3-methylcyclobutyl)methanone] |

| IC50 [nM] | Compound |
| --- | --- |
| 31 | Cc1cccc(CC2CCC3(CC2)CN(C(=O)[C@H]2C[C@@](C)(O)C2)C3)c1 [Example 159, ((1s,3s)-3-Hydroxy-3-methylcyclobutyl)(7-(3-methylbenzyl)-2-azaspiro[3.5]nonan-2-yl)methanone] |
| 38 | C[C@]1(O)C[C@@H](C(=O)N2CC3(CCC(Cc4cccc(OC(F)F)c4)CC3)C2)C1 [Example 160, (7-(3-(Difluoromethoxy)benzyl)-2-azaspiro[3.5]nonan-2-yl)((1s,3s)-3-hydroxy-3-methylcyclobutyl)methanone] |
| 19 | C[C@]1(O)C[C@@H](C(=O)N2CC3(CCC(Cc4ccc(OC(F)F)cc4)CC3)C2)C1 [Example 161, (7-(4-(Difluoromethoxy)benzyl)-2-azaspiro[3.5]nonan-2-yl)((1s,3s)-3-hydroxy-3-methylcyclobutyl)methanone] |
| 29 | C[C@]1(O)C[C@@H](C(=O)N2CC3(CCC(Cc4ccc(C(F)F)cc4)CC3)C2)C1 [Example 162, (7-(4-(Difluoromethyl)benzyl)-2-azaspiro[3.5]nonan-2-yl)((1s,3s)-3-hydroxy-3-methylcyclobutyl)methanone] |
| 61 | C[C@]1(O)C[C@@H](C(=O)N2CC3(CCC(Cc4cccc(C(F)F)c4)CC3)C2)C1 [Example 163, (7-(3-(Difluoromethyl)benzyl)-2-azaspiro[3.5]nonan-2-yl)((1s,3s)-3-hydroxy-3-methylcyclobutyl)methanone] |
| 52 | C[C@]1(O)C[C@@H](C(=O)N2CC3(CC(Cc4ccccc4)C3)C2)C1 [Example 164, (6-Benzyl-2-azaspiro[3.3]heptan-2-yl)((1s,3s)-3-hydroxy-3-methylcyclobutyl)methanone] |
| 21 | Cc1cccc(CC2CC3(C2)CN(C(=O)[C@H]2C[C@@](C)(O)C2)C3)c1 [Example 165, ((1s,3s)-3-Hydroxy-3-methylcyclobutyl)(6-(3-methylbenzyl)-2-azaspiro[3.3]heptan-2-yl)methanone] |
| 14 | Cc1ccc(CC2CC3(C2)CN(C(=O)[C@H]2C[C@@](C)(O)C2)C3)cc1 [Example 166, ((1s,3s)-3-Hydroxy-3-methylcyclobutyl)(6-(4-methylbenzyl)-2-azaspiro[3.3]heptan-2-yl)methanone] |
| 1390 | C[C@]1(O)C[C@@H](C(=O)N2CC3(CC(Cc4ccccn4)C3)C2)C1 [Example 167, ((1s,3s)-3-Hydroxy-3-methylcyclobutyl)(6-(pyridin-2-ylmethyl)-2-azaspiro[3.3]heptan-2-yl)methanone] |
| 1370 | C[C@]1(O)C[C@@H](C(=O)N2CC3(CC(Cc4cccnc4)C3)C2)C1 [Example 168, ((1s,3s)-3-Hydroxy-3-methylcyclobutyl)(6-(pyridin-3-ylmethyl)-2-azaspiro[3.3]heptan-2-yl)methanone] |
| 74 | C[C@]1(O)C[C@@H](C(=O)N2CCC3(CC2)CC(Cc2ccccc2)C3)C1 [Example 172, (2-Benzyl-7-azaspiro[3.5]nonan-7-yl)((1s,3s)-3-hydroxy-3-methylcyclobutyl)methanone] |
| 28 | Cc1ccc(CC2CC3(CCN(C(=O)[C@H]4C[C@@](C)(O)C4)CC3)C2)cc1 [Example 173, ((1s,3s)-3-Hydroxy-3-methylcyclobutyl)(2-(4-methylbenzyl)-7-azaspiro[3.5]nonan-7-yl)methanone] |
| 14 | Cc1ccccc1CC1CC2(C1)CN(C(=O)[C@H]1C[C@@](C)(O)C1)C2 [Example 184, ((1s,3s)-3-Hydroxy-3-methylcyclobutyl)(6-(2-methylbenzyl)-2-azaspiro[3.3]heptan-2-yl)methanone] |
| 2.3 | CC(C)c1ccc(CC2CC3(C2)CN(C(=O)[C@H]2C[C@@](C)(O)C2)C3)cc1 [Example 185, ((1s,3s)-3-Hydroxy-3-methylcyclobutyl)(6-(4-isopropylbenzyl)-2-azaspiro[3.3]heptan-2-yl)methanone] |
| 4.7 | CC(C)c1cccc(CC2CC3(C2)CN(C(=O)[C@H]2C[C@@](C)(O)C2)C3)c1 [Example 186, ((1s,3s)-3-Hydroxy-3-methylcyclobutyl)(6-(3-isopropylbenzyl)-2-azaspiro[3.3]heptan-2-yl)methanone] |
| 12 | CC(C)c1ccccc1CC1CC2(C1)CN(C(=O)[C@H]1C[C@@](C)(O)C1)C2 [Example 187, ((1s,3s)-3-Hydroxy-3-methylcyclobutyl)(6-(2-isopropylbenzyl)-2-azaspiro[3.3]heptan-2-yl)methanone] |
| 4.3 | Cc1ccc(CC2CC3(C2)CN(C(=O)[C@H]2C[C@@](C)(O)C2)C3)cc1C [Example 188, (6-(3,4-Dimethylbenzyl)-2-azaspiro[3.3]heptan-2-yl)((1s,3s)-3-hydroxy-3-methylcyclobutyl)methanone] |

Reference: patent US11802111B2, “Cyclobutyl amide monoacylglycerol lipase modulators” (Janssen Pharmaceutica NV, priority 2020, dated 2023)
